Measurements: patent US20220162188A1, “ISOPRENOIDS AND METHODS OF MAKING THEREOF” (NORTH CAROLINA STATE UNIVERSITY, priority 2019, published 2022)
“Also recorded” adds a separate entry of the source.

Tests used:
IspA S81F = IspA S81F (Escherichia coli, UniProt P22939, S80F); type: biochemical; conditions: DMAPP as starter unit
IspA Y80D = IspA Y80D (Escherichia coli, UniProt P22939, Y79D); type: biochemical; conditions: DMAPP as starter unit
[1] = biological target: IspA, a farnesyl diphosphate synthase (FPPase) (Escherichia coli, UniProt P22939); conditions: wild-type IspA
[2] = biological target: T1, isopentenyl phosphate kinase (IPK) (Thermoplasma acidophilum, UniProt Q9HLX1); assay: NADH-coupled kinetic assay of IPK; conditions: IPK with monophosphorylated substrate, ± SD of the mean
T1 sequence (Q9HLX1 1-245): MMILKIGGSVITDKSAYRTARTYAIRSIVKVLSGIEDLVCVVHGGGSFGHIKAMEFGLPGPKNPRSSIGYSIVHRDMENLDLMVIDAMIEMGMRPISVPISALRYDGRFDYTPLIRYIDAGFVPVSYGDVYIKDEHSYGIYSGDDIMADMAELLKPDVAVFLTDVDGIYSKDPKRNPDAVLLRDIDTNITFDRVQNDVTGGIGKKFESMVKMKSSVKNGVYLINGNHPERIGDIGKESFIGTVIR
Method: The data was fitted to the Michaelis-Menten equation using SigmaPlot, and the kinetic parameters (kcat, Km, kcat/Km) extracted.
NADH-Coupled Kinetic Assays. NADH coupled assays were performed with purified enzymes. Reaction progress was monitored by absorbance at 340 nm at 30° C. in a 96-well plate using a Biotek Synergy 4 plate reader (Winooski, Vt.). 200 μL enzymatic mixtures contained 50 mM Tris (pH 8.0), 25 mM KCl, 2.5 mM MgCl2, 0.05 mM DTT, 1 mM ATP, 320 μM NADH, 400 μM phosphoenolpyruvate, 0.5 U pyruvate kinase, 0.7 U lactate dehydrogenase, and various amounts of substrate. Conditions were verified by doubling enzyme and verifying the initial rate was doubled as well.
Kinetics of IPK were done with purified enzyme using 0.09 μg of enzyme per well. Serial dilution was used to generate specific concentrations of substrates (3125, 1562, 781, 625, 391, 195, 98, 24, 12, and 3 μM). Each condition was performed in triplicate. Nonlinear regression was fitted using SigmaPlot (Systat Software Inc., San Jose, Calif., USA).

Sequence of IspA, a farnesyl diphosphate synthase (FPPase) (P22939 whole entry): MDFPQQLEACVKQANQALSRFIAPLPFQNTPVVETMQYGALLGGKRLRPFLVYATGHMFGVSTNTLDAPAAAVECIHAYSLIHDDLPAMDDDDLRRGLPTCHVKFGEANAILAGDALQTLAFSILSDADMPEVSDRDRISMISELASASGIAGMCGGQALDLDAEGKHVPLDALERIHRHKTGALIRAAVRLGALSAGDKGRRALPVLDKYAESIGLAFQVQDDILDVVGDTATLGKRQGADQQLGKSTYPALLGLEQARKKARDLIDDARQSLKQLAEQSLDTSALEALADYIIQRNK
Sequence of IspA S81F (P22939 whole entry S80F): as the sequence (P22939 whole entry) above, with S80F counted along it
Sequence of IspA Y80D (P22939 whole entry Y79D): as the sequence (P22939 whole entry) above, with Y79D counted along it

CCC/C=C/COP(=O)(O)O [Substrate 29]
use as extender unit in place of IPP (conversion by LC-MS), words (IspA S81F): most efficient analogues
use as extender unit in place of IPP (conversion by LC-MS), words (IspA Y80D): most efficient analogues
use as extender unit in place of IPP (GPP analogue by LC-MS), words ([1]; DMAPP as starter unit): accepted by IspA; also recorded: most efficient analogues
use as extender unit in place of IPP (FPP analogue by LC-MS), words ([1]; GPP as starter unit): almost as good as that with IPP; also recorded: accepted by IspA
kcat [2]: 43.0 ± 17.8 s⁻¹
Km ([2]; 1 mM ATP, 30° C.): 6.83 ± 3.77 mM
